Consider 48 compounds from ChEMBL document CHEMBL5241054, “Effective anti-aromatase therapy to battle against estrogen-mediated breast cancer: Comparative SAR/QSAR assessment on steroidal aromatase inhibitors” (Eur J Med Chem, 2020).

SMILES strings stand for the structures. pIC50: −log10 of the molar value. “And” between values parts separate entries of the source, which are not always exact repeats. Equal values may be shown once.

One experiment addresses T1, Aromatase (Homo sapiens, UniProt P11511).
T1 sequence (P11511 whole entry): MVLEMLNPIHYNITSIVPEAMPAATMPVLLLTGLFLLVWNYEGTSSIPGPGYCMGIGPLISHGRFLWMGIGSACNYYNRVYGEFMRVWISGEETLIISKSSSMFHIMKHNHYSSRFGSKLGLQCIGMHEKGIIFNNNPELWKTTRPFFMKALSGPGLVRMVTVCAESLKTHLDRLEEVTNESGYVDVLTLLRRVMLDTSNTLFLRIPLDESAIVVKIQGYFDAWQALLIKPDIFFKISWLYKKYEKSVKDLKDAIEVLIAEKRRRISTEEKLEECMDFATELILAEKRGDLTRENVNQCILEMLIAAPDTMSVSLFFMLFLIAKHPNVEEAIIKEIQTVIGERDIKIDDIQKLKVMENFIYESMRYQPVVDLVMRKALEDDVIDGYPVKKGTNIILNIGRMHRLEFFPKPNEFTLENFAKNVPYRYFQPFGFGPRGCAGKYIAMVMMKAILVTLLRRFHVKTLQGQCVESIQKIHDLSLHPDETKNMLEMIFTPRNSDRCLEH
Turning to `C[C@@H]1C[C@@]2(C)C(=CC1=O)CC[C@@H]1[C@@H]2CC[C@]2(C)C(=O)CC[C@@H]12`, the pIC50 is 6.34.
Compound `C[C@]12CCC(=O)C=C1C=C(Cc1ccccc1)[C@@H]1[C@@H]2CC[C@]2(C)C(=O)CC[C@@H]12` showed a pIC50 of 7.21.
`C[C@]12CCC(=O)C=C1C=C(Cc1ccc(N)cc1)[C@@H]1[C@@H]2CC[C@]2(C)C(=O)CC[C@@H]12` showed a pIC50 of 7.06.

For the next experiment, the target named is T1, Aromatase. This is another data set of the same source.
As for `C[C@]12CCCC[C@@H]1CC[C@@H]1[C@@H]2CC[C@]2(C)C(=O)CC[C@@H]12`, the pIC50 was 5.64.
For `CN1N=C2[C@H](C[C@H]3[C@@H]4CCC5=CC(=O)C=C[C@]5(C)[C@H]4CC[C@]23C)[C@H]1c1ccccc1`, the pIC50 is 5.61.
Still for that read-out and setting: with `C[C@]12C=CC(=O)C=C1C=C(c1ccccc1)[C@@H]1[C@@H]2CC[C@]2(C)C(=O)CC[C@@H]12` the figure was 5.65; with `COc1ccc([C@@H]2[C@H]3C[C@H]4[C@@H]5CCC6=CC(=O)C=C[C@]6(C)[C@H]5CC[C@]4(C)C3=NN2C)cc1`, 5.68.
Take `C[C@@H]1C[C@@]2(C)C(=CC1=O)CC[C@@H]1[C@@H]2CC[C@]2(C)C(=O)CC[C@@H]12`: the pIC50 is 6.60 and 6.34.
On to `C[C@]12C=CC(=O)C=C1CC[C@@H]1[C@@H]2CC[C@]2(C)C3=NN(c4ccccc4)[C@H](c4ccccc4)[C@H]3C[C@@H]12`, for which the pIC50 was 5.70.
Compound `C[C@]12CCC(=O)C=C1C=C(Cc1ccccc1)[C@@H]1[C@@H]2CC[C@]2(C)C(=O)CC[C@@H]12` gave a pIC50 of 6.22.
Consider `CC(=O)N1N=C2[C@H](C[C@H]3[C@@H]4CC[C@H]5C[C@@H](OC(=O)C(F)(F)F)CC[C@]5(C)[C@H]4CC[C@]23C)[C@H]1c1ccccc1`, for which the pIC50 was 5.18.
`COc1ccc([C@@H]2[C@H]3C[C@H]4[C@@H]5CC[C@H]6CC(=O)CC[C@]6(C)[C@H]5CC[C@]4(C)C3=NN2c2ccccc2)cc1` gave a pIC50 of 5.38.
The same measure, in the same setting: the figure for `C[C@]12CCC(=O)C[C@@H]1CC[C@@H]1[C@@H]2CC[C@]2(C)C3=NN[C@H](c4ccccc4)[C@H]3C[C@@H]12` is 5.28; for `CCC(=O)N1N=C2[C@H](C[C@H]3[C@@H]4CC[C@H]5C[C@@H](OC(=O)C(F)(F)F)CC[C@]5(C)[C@H]4CC[C@]23C)[C@H]1c1ccc(OC)cc1` it is 5.18.
The same measure, in the same setting: the figure for `C[C@]12CC[C@@H]3C4CCC(=O)C=C4C(=O)C[C@H]3[C@@H]1CCC2=O` (stereo partly specified) is 4.92; for `COc1ccc([C@@H]2[C@H]3C[C@H]4[C@@H]5CC[C@H]6C[C@@H](OC(=O)C(F)(F)F)CC[C@]6(C)[C@H]5CC[C@]4(C)C3=NN2C)cc1` it is 5.24.
On to `CC(=O)N1N=C2[C@H](C[C@H]3[C@@H]4CCC5=CC(=O)C=C[C@]5(C)[C@H]4CC[C@]23C)[C@H]1c1ccccc1`, for which the pIC50 was 5.54.
`COc1ccc([C@@H]2[C@H]3C[C@H]4[C@@H]5CC[C@H]6C[C@@H](OC(=O)C(F)(F)F)CC[C@]6(C)[C@H]5CC[C@]4(C)C3=NN2c2ccccc2)cc1`: the pIC50 is 5.26.
As for `C[C@]12CC[C@H](OC(=O)C(F)(F)F)C[C@@H]1CC[C@@H]1[C@@H]2CC[C@]2(C)C3=NN(c4ccccc4)[C@H](c4ccccc4)[C@H]3C[C@@H]12`, the pIC50 was 5.25.
Same read-out and setting: with `C[C@]12CC[C@@H]3C4CCC(=O)C=C4CC[C@H]3[C@@H]1CCC2=O` (stereo partly specified) the figure was 5.92; with `CC(=O)N1N=C2[C@H](C[C@H]3[C@@H]4CC[C@H]5CC(=O)CC[C@]5(C)[C@H]4CC[C@]23C)[C@H]1c1ccccc1`, 5.31.
For the compound `CCC(=O)N1N=C2[C@H](C[C@H]3[C@@H]4CC[C@H]5C[C@@H](OC(=O)C(F)(F)F)CC[C@]5(C)[C@H]4CC[C@]23C)[C@H]1c1ccccc1`, the pIC50 was 5.17.
Regarding `C[C@]12CC[C@H](O)C[C@@H]1CC[C@@H]1[C@@H]2CC[C@]2(C)C3=NN(c4ccccc4)[C@H](c4ccccc4)[C@H]3C[C@@H]12`, the negative logarithm of the IC50 (pIC50) was 5.22.
On the same count and under the same terms, the figure for `COc1ccc(/C=C2/C[C@H]3[C@@H]4CC[C@H]5C[C@@H](O)CC[C@]5(C)[C@H]4CC[C@]3(C)C2=O)cc1` is 5.15; for `CN1N=C2[C@H](C[C@H]3[C@@H]4CC[C@H]5C[C@@H](O)CC[C@]5(C)[C@H]4CC[C@]23C)[C@H]1c1ccccc1` it is 5.20; for `C/C=C1\CC[C@@]2(C)[C@@H](CC[C@@H]3[C@@H]2CC[C@]2(C)C4=NN(C)[C@H](c5ccccc5)[C@H]4C[C@@H]32)C1` it is 5.46.
In the case of `CN1N=C2[C@H](C[C@H]3[C@@H]4CC[C@H]5CC(=O)CC[C@]5(C)[C@H]4CC[C@]23C)[C@H]1c1ccccc1`, the pIC50 is 5.32.
`COc1ccc([C@@H]2[C@H]3C[C@H]4[C@@H]5CC[C@H]6C[C@@H](OC(=O)C(F)(F)F)CC[C@]6(C)[C@H]5CC[C@]4(C)C3=NN2C(C)=O)cc1`: the pIC50 was 5.19.
As to `C[C@]12C=CC(=O)C=C1CC[C@@H]1[C@@H]2CC[C@]2(C)C(=O)C(Br)C[C@@H]12` (stereo partly specified), the pIC50 is 4.88.
On the same count and under the same terms, with `COc1ccc([C@H]2NN=C3[C@@H]2C[C@H]2[C@@H]4CC[C@H]5C[C@@H](O)CC[C@]5(C)[C@H]4CC[C@]32C)cc1` the figure was 5.17; with `CN1N=C2[C@H](C[C@H]3[C@@H]4CC[C@H]5C[C@@H](OC(=O)C(F)(F)F)CC[C@]5(C)[C@H]4CC[C@]23C)[C@H]1c1ccccc1`, 5.24; with `COc1ccc([C@@H]2[C@H]3C[C@H]4[C@@H]5CC[C@H]6C[C@@H](O)CC[C@]6(C)[C@H]5CC[C@]4(C)C3=NN2c2ccccc2)cc1`, 5.23.
With `CC(=O)O[C@H]1[C@@H](n2ccnc2)C[C@H]2[C@@H]3CC=C4C[C@@H](N5CCCC5)CC[C@]4(C)[C@H]3CC[C@@]21C`, the pIC50 was 5.31.
`C[C@]12CC[C@H](O)C[C@@H]1CC[C@@H]1[C@@H]2CC[C@]2(C)C3=NN[C@H](c4ccccc4)[C@H]3C[C@@H]12` gave a pIC50 of 5.16.
`COc1ccc([C@@H]2[C@H]3C[C@H]4[C@@H]5CCC6=CC(=O)C=C[C@]6(C)[C@H]5CC[C@]4(C)C3=NN2C(C)=O)cc1`: the pIC50 is 5.58.
For `COc1ccc([C@H]2NN=C3[C@@H]2C[C@H]2[C@@H]4CC[C@H]5CC(=O)CC[C@]5(C)[C@H]4CC[C@]32C)cc1`, the pIC50 is 5.31.
In the case of `C[C@]12CC[C@H](OC(=O)C(F)(F)F)C[C@@H]1CC[C@@H]1[C@@H]2CC[C@]2(C)C(=O)/C(=C\c3ccccc3)C[C@@H]12`, the pIC50 was 5.15.
For the compound `C[C@]12C=CC(=O)C=C1CC[C@@H]1[C@@H]2CC[C@]2(C)C3=NN[C@H](c4ccccc4)[C@H]3C[C@@H]12`, the pIC50 is 5.52.
`C[C@]12C=CC(=O)C=C1C[C@H](c1ccc(N)cc1)[C@@H]1[C@@H]2CC[C@]2(C)C(=O)CC[C@@H]12` gave a pIC50 of 8.00.
Compound `C/C=C1\CC[C@@]2(C)[C@@H](CC[C@@H]3[C@@H]2CC[C@]2(C)C4=NN(C)[C@H](c5ccc(OC)cc5)[C@H]4C[C@@H]32)C1` had a pIC50 of 5.47.
For `COc1ccc([C@H]2NN=C3[C@@H]2C[C@H]2[C@@H]4CCC5=CC(=O)C=C[C@]5(C)[C@H]4CC[C@]32C)cc1`, the pIC50 is 5.54.
As to `C/C=C1\CC[C@@]2(C)[C@@H](CC[C@@H]3[C@@H]2CC[C@]2(C)C4=NN(c5ccccc5)[C@H](c5ccccc5)[C@H]4C[C@@H]32)C1`, the pIC50 was 5.48.
`COc1ccc([C@@H]2[C@H]3C[C@H]4[C@@H]5CC[C@H]6CC(=O)CC[C@]6(C)[C@H]5CC[C@]4(C)C3=NN2C(C)=O)cc1` showed a pIC50 of 5.31.
As to `C/C=C1\CC[C@@]2(C)[C@@H](CC[C@@H]3[C@@H]2CC[C@]2(C)C4=NN(c5ccccc5)[C@H](c5ccc(OC)cc5)[C@H]4C[C@@H]32)C1`, the pIC50 is 5.49.
Take `C[C@]12CCC(=O)C[C@@H]1CC[C@@H]1[C@@H]2CC[C@]2(C)C3=NN(c4ccccc4)[C@H](c4ccccc4)[C@H]3C[C@@H]12`: the pIC50 was 5.37.
For `C[C@]12CCC(=O)C=C1CC[C@@H]1[C@@H]2CC[C@]2(C)C(=O)C(Br)C[C@@H]12` (stereo partly specified), the pIC50 is 5.58.
Compound `COc1ccc([C@@H]2[C@H]3C[C@H]4[C@@H]5CC[C@H]6C[C@@H](O)CC[C@]6(C)[C@H]5CC[C@]4(C)C3=NN2C)cc1` had a pIC50 of 5.21.
Take `C[C@]12CCC(=O)C[C@@H]1C(=O)C[C@@H]1[C@@H]2CC[C@]2(C)C(=O)CC[C@@H]12`: the pIC50 is 5.40.
With `C[C@]12CCC(=O)C=C1C=C(Cc1ccc(N)cc1)[C@@H]1[C@@H]2CC[C@]2(C)C(=O)CC[C@@H]12`, the pIC50 was 6.31.
`COc1ccc([C@@H]2[C@H]3C[C@H]4[C@@H]5CC[C@H]6CC(=O)CC[C@]6(C)[C@H]5CC[C@]4(C)C3=NN2C)cc1` had a pIC50 of 5.34.
Take `COc1ccc(/C=C2/C[C@H]3[C@@H]4CC[C@H]5C[C@@H](OC(=O)C(F)(F)F)CC[C@]5(C)[C@H]4CC[C@]3(C)C2=O)cc1`: the pIC50 was 5.16.
